What follows are compounds tested against T1, full-length human PKCι (Homo sapiens, UniProt P41743) (assay: PKCι IC50 IMAP fluorescence polarisation assay, full-length enzyme). Settings: full length PKCi at 15 μM ATP; read-out: IC50 in IMAP assay against full length PKCi.
T1 construct: Recombinant, full-length human PKCι expressed in Sf21 insect cells is also commercially available; purchased; host or cells: Sf21 insect cells
T1 sequence (P41743 1-596): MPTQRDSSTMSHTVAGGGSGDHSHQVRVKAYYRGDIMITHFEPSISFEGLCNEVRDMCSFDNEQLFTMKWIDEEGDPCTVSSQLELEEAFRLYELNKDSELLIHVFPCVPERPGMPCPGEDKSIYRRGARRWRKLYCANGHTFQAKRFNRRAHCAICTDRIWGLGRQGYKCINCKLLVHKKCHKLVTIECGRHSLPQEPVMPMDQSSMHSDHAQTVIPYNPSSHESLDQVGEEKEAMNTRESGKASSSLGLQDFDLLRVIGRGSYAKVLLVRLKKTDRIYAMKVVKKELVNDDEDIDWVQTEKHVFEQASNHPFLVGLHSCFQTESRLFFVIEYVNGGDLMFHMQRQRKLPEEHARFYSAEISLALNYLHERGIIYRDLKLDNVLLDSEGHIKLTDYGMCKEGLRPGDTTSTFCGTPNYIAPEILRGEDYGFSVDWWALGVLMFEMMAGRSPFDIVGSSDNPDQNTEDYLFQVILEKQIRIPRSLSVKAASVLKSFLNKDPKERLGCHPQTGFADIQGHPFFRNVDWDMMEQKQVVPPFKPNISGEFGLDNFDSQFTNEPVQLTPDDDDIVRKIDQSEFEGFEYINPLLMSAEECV
Assay type: biochemical

| SMILES | IC50 [nM] |
| --- | --- |
| Cc1sc2c(N[C@@H]3CCNC3)nc(-c3ccncc3)nc2c1C#CC(C)(C)O [compound 503, 2-Methyl-4-[6-methyl-2-pyridin-4-yl-4-((R)-pyrrolidin-3-ylamino)-thieno[3,2-d]pyrimidin-7-yl]-but-3-yn-2-ol] | 100 to 1000 |
| N[C@H](CNc1nc(-c2ccncc2)nc2c(C3CC3)csc12)Cc1ccccc1 [compound 413, (S)-N*1*-(7-Cyclopropyl-2-pyridin-4-yl-thieno[3,2-d]pyrimidin-4-yl)-3-phenyl-propane-1,2-diamine] | < 100 |
| Cc1ccccc1-c1csc2c(NC[C@@H](N)Cc3ccccc3)nc(-c3ccncc3F)nc12 [compound 433, (S)-N*1*-[2-(3-Fluoro-pyridin-4-yl)-7-o-tolyl-thieno[3,2-d]pyrimidin-4-yl]-3-phenyl-propane-1,2-diamine] | 1000 to 10000 |
| CN(C)S(=O)(=O)c1ccc(Nc2cc(-c3nc(N[C@@H]4CCNC4)c4sccc4n3)ccn2)cc1 [compound 610, N,N-Dimethyl-4-{4-[4-((R)-pyrrolidin-3-ylamino)-thieno[3,2-d]pyrimidin-2-yl]-pyridin-2-ylamino}-benzenesulfonamide] | 1000 to 10000 |
| Cc1sc2c(NCCN)nc(-c3ccncc3)nc2c1C [compound 309, N*1*-(6,7-Dimethyl-2-pyridin-4-yl-thieno[3,2-d]pyrimidin-4-yl)-ethane-1,2-diamine] | 1000 to 10000 |
| Fc1c(-c2nc(N[C@@H]3CCNC3)c3sccc3n2)ccnc1Nc1cnccn1 [compound 585, {2-[3-Fluoro-2-(pyrazin-2-ylamino)-pyridin-4-yl]-thieno[3,2-d]pyrimidin-4-yl}-(R)-pyrrolidin-3-yl-amine] | 1000 to 10000 |
| c1cnc(Nc2cc(-c3nc(N[C@@H]4CCNC4)c4sccc4n3)ccn2)cn1 [compound 577, {2-[2-(Pyrazin-2-ylamino)-pyridin-4-yl]-thieno[3,2-d]pyrimidin-4-yl}-(R)-pyrrolidin-3-yl-amine] | 100 to 1000 |
| COc1ccc(OC)c(-c2c(C)sc3c(NC[C@@H](N)Cc4ccccc4)nc(-c4ccncc4)nc23)c1 [compound 466, (S)-N*1*-[7-(2,5-Dimethoxy-phenyl)-6-methyl-2-pyridin-4-yl-thieno[3,2-d]pyrimidin-4-yl]-3-phenyl-propane-1,2-diamine] | 10000 to 40000 |

Results, then the compound that gave them:

| IC50 [nM] | SMILES |
| --- | --- |
| 100 to 1000 | N[C@H](CNc1nc(-c2ccncc2)nc2c(C#Cc3ccccn3)csc12)Cc1ccccc1 [compound 529, (S)-3-Phenyl-N*1*-(2-pyridin-4-yl-7-pyridin-2-ylethynyl-thieno[3,2-d]pyrimidin-4-yl)-propane-1,2-diamine] |
| < 100 | N[C@H](CNc1nc(-c2ccncc2)nc2c(-c3ccn[nH]3)csc12)Cc1ccccc1 [compound 390, (S)-3-Phenyl-N*1*-[7-(2H-pyrazol-3-yl)-2-pyridin-4-yl-thieno[3,2-d]pyrimidin-4-yl]-propane-1,2-diamine] |
| 1000 to 10000 | N[C@H](CNc1nc(-c2cc[n+]([O-])cc2)nc2c(-c3ccn[nH]3)csc12)Cc1ccccc1 [compound 565, (S)—N*1*-[2-(1-Oxy-pyridin-4-yl)-7-(2H-pyrazol-3-yl)-thieno[3,2-d]pyrimidin-4-yl]-3-phenyl-propane-1,2-diamine] |
| 1000 to 10000 | CC(C)(C)c1sc2c(NC[C@@H](N)Cc3ccccc3)nc(-c3ccncc3)nc2c1-c1ccn[nH]1 [compound 468, (S)-N*1*-[6-tert-Butyl-7-(2H-pyrazol-3-yl)-2-pyridin-4-yl-thieno[3,2-d]pyrimidin-4-yl]-3-phenyl-propane-1,2-diamine] |
| 100 to 1000 | N[C@H](CNc1nc(-c2ccncc2)nc2c(-c3cc[nH]c3)csc12)Cc1ccccc1 [compound 398, (S)-3-Phenyl-N*1*-[2-pyridin-4-yl-7-(1H-pyrrol-3-yl)-thieno[3,2-d]pyrimidin-4-yl]-propane-1,2-diamine] |
| 10000 to 40000 | N[C@H](CNc1nc(-c2ccnc(NC(=O)c3cccs3)c2)nc2ccsc12)Cc1ccc(C(F)(F)F)cc1 [compound 630, Thiophene-2-carboxylic acid (4-{4-[(S)-2-amino-3-(4-trifluoromethyl-phenyl)-propylamino]-thieno[3,2-d]pyrimidin-2-yl}-pyridin-2-yl)-amide] |
| < 100 | N#Cc1csc2c(NC[C@@H](N)Cc3ccccc3)nc(-c3ccncc3)nc12 [compound 560, 4-((S)-2-Amino-3-phenyl-propylamino)-2-pyridin-4-yl-thieno[3,2-d]pyrimidine-7-carbonitrile] |
| 1000 to 10000 | Cn1ccc(-c2csc3c(NC[C@@H](N)Cc4ccccc4)nc(-c4ccncc4)nc23)n1 [compound 415, (S)-N*1*-[7-(1-Methyl-1H-pyrazol-3-yl)-2-pyridin-4-yl-thieno[3,2-d]pyrimidin-4-yl]-3-phenyl-propane-1,2-diamine] |
| 1000 to 10000 | Cc1[nH]ncc1-c1nc(NC[C@@H](N)Cc2ccccc2)c2sccc2n1 [compound 634, (S)-N*1*-[2-(5-Methyl-1H-pyrazol-4-yl)-thieno[3,2-d]pyrimidin-4-yl]-3-phenyl-propane-1,2-diamine] |
| 10000 to 40000 | CC(C)(C)c1cc2nc(-c3ccncc3)nc(NC[C@@H](N)Cc3ccccc3)c2s1 [compound 324, (S)-N*1*-(6-tert-Butyl-2-pyridin-4-yl-thieno[3,2-d]pyrimidin-4-yl)-3-phenyl-propane-1,2-diamine] |
| 1000 to 10000 | N[C@@H](CNc1nc(-c2ccncc2)nc2c(-c3ccc(Br)cc3)csc12)Cc1ccccc1 [compound 327, (R)-N*1*-[7-(4-Bromo-phenyl)-2-pyridin-4-yl-thieno[3,2-d]pyrimidin-4-yl]-3-phenyl-propane-1,2-diamine] |
| 10000 to 40000 | CC(C)(C)c1sc2c(NC[C@@H](N)Cc3ccccc3)nc(-c3ccncc3)nc2c1-c1ccc(F)nc1 [compound 443, (S)-N*1*-[6-tert-Butyl-7-(6-fluoro-pyridin-3-yl)-2-pyridin-4-yl-thieno[3,2-d]pyrimidin-4-yl]-3-phenyl-propane-1,2-diamine] |
| 10000 to 40000 | CC(C)(C)c1sc2c(NC[C@@H](N)Cc3ccccc3)nc(-c3ccncc3)nc2c1-c1ccc(F)cc1 [compound 442, (S)-N*1*-[6-tert-Butyl-7-(4-fluoro-phenyl)-2-pyridin-4-yl-thieno[3,2-d]pyrimidin-4-yl]-3-phenyl-propane-1,2-diamine] |
| 10000 to 40000 | COc1ccc(F)cc1-c1c(C)sc2c(NC[C@@H](N)Cc3ccccc3)nc(-c3ccncc3)nc12 [compound 467, (S)-N*1*-[7-(5-Fluoro-2-methoxy-phenyl)-6-methyl-2-pyridin-4-yl-thieno[3,2-d]pyrimidin-4-yl]-3-phenyl-propane-1,2-diamine] |

Same assay, conditions: full length PKCi at 15 μM ATP; read-out: IC50 in IMAP assay against full length PKCi (Activity)

| IC50 [nM] | SMILES |
| --- | --- |
| 100 to 1000 | N[C@@H](CNc1nc(-c2ccncc2)nc2sc3c(c12)CCC1(C3)OCCO1)Cc1ccccc1 [compound 79, (R)-3-Phenyl-N*1*-*-1,4-Dioxa-spiro[7.7]-(2-pyridin-4-yl-5,6,7,8-tetrahydro-benzo[4,5]thieno[2,3-d]pyrimidin-4-yl)-propane-1,2-diamine] |
| 10000 to 40000 | CC(C)C(=O)N1CCc2c(sc3nc(-c4ccncc4)nc(NCCN)c23)C1 [compound 107, 1-[4-(2-Amino-ethylamino)-2-pyridin-4-yl-5,8-dihydro-6H-pyrido[4′,3′:4,5]thieno[2,3-d]pyrimidin-7-yl]-2-methyl-propan-1-one] |
| 100 to 1000 | NCCNc1nc(-c2ccncc2)nc2sc3c(c12)CCCC3 [compound 12, N*1*-(2-pyridin-4-yl-5,6,7,8-tetrahydro-benzo[4,5]thieno[2,3-d]pyrimidin-4-yl)-ethane-1,2-diamine] |

— patent US10183950B2, “Thienopyrimidine inhibitors of atypical protein kinase C” (Cancer Research Technology Limited, priority 2011, dated 2019)
